In publication doi:10.1101/2025.11.24.690255v1 (biorxiv, 2025):

Target: β-glucosidase B (BglB) (Paenibacillus polymyxa, UniProt P22505)
Assay: hydrolysis monitored at […] nm, Michaelis-Menten nonlinear fit
Assay type: biochemical
Conditions: 0-100 mM substrate, 15 min

Chain of β-glucosidase B (BglB) (P22505 whole entry): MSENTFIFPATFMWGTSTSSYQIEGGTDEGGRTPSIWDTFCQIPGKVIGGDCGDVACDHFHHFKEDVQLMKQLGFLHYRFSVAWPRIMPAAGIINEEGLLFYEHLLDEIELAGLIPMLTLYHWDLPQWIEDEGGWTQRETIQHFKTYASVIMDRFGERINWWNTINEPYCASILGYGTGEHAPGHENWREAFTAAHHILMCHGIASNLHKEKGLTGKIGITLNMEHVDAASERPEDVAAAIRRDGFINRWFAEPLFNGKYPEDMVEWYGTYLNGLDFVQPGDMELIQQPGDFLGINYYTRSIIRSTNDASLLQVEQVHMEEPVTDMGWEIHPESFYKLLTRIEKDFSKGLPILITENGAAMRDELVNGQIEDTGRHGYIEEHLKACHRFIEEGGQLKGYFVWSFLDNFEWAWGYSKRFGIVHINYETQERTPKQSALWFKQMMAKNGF

Km: 5 ± 0.3 mM
SMILES: O=[N+]([O-])c1ccc(O[C@@H]2O[C@H](CO)[C@@H](O)[C@H](O)[C@H]2O)cc1 [pPNG, 4-nitrophenyl-β-D-glucopyranoside]
